Test results as given in patent US20250197372A1 (priority 2020, published 2025).

Key:
[1] = biological target: rat sucrase (partially purified alpha-glucosidase from intestinal rat powder) (Rattus norvegicus, UniProt P23739); test: Intestinal alpha-glucosidase assay, sucrose substrate (Glucose GO Kit); type: biochemical
Method in brief: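 Enzyme from intestinal rat powder, partially purified, is exposed to compound for 60 min at 37 °C. Disaccharide substrate (maltose or sucrose respectively) then reacts 30 min at 37 °C. Heat-stopped samples are assayed for glucose, and percent inhibition versus concentration gives IC50 via 4-PL.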

[2] = biological target: T1, recombinant alpha-glucosidase I (human full-length glucosidase I, Glu 1) (Homo sapiens, UniProt Q13724); test: Alpha-glucosidase I assay (Amplex Red glucose detection, synthetic trisaccharide substrate); type: biochemical; settings: Glucosidase 1; read-out: Glu 1 IC50
T1 construct: 6-His (C); made in house; host or cells: HEK-293T cells transduced with BacMam virus (virus raised in Sf9)
T1 sequence (Q13724 1-837): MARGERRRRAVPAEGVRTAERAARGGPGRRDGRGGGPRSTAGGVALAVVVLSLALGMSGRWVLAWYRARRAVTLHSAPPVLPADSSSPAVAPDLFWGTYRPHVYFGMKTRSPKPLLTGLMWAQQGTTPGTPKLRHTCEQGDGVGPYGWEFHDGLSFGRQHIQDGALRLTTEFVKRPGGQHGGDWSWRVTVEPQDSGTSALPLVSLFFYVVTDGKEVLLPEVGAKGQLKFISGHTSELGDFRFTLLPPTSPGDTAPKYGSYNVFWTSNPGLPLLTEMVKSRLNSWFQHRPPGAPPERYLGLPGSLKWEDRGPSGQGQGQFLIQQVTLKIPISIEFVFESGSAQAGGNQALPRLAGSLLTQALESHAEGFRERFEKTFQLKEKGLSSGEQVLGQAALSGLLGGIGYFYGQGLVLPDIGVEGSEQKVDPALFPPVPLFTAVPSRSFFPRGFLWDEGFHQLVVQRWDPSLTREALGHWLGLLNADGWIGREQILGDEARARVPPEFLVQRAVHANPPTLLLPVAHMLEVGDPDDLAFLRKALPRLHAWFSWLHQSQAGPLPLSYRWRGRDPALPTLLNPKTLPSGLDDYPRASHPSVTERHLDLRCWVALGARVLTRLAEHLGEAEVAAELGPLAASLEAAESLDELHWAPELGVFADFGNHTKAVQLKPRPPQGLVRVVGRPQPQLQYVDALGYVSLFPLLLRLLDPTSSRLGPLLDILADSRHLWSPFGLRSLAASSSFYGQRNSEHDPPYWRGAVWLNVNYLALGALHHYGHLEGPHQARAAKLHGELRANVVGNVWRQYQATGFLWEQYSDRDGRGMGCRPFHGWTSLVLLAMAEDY
Method in brief: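 Human full-length glucosidase I, His-tagged, […] and Ni-purified. Enzyme preincubated with compound dilutions 60 min at 37° C, then synthetic trisaccharide substrate 90 min at 37° C; stopped with 1.5M Tris pH 8.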

Sequence of rat sucrase (partially purified alpha-glucosidase from intestinal rat powder) (P23739 whole entry): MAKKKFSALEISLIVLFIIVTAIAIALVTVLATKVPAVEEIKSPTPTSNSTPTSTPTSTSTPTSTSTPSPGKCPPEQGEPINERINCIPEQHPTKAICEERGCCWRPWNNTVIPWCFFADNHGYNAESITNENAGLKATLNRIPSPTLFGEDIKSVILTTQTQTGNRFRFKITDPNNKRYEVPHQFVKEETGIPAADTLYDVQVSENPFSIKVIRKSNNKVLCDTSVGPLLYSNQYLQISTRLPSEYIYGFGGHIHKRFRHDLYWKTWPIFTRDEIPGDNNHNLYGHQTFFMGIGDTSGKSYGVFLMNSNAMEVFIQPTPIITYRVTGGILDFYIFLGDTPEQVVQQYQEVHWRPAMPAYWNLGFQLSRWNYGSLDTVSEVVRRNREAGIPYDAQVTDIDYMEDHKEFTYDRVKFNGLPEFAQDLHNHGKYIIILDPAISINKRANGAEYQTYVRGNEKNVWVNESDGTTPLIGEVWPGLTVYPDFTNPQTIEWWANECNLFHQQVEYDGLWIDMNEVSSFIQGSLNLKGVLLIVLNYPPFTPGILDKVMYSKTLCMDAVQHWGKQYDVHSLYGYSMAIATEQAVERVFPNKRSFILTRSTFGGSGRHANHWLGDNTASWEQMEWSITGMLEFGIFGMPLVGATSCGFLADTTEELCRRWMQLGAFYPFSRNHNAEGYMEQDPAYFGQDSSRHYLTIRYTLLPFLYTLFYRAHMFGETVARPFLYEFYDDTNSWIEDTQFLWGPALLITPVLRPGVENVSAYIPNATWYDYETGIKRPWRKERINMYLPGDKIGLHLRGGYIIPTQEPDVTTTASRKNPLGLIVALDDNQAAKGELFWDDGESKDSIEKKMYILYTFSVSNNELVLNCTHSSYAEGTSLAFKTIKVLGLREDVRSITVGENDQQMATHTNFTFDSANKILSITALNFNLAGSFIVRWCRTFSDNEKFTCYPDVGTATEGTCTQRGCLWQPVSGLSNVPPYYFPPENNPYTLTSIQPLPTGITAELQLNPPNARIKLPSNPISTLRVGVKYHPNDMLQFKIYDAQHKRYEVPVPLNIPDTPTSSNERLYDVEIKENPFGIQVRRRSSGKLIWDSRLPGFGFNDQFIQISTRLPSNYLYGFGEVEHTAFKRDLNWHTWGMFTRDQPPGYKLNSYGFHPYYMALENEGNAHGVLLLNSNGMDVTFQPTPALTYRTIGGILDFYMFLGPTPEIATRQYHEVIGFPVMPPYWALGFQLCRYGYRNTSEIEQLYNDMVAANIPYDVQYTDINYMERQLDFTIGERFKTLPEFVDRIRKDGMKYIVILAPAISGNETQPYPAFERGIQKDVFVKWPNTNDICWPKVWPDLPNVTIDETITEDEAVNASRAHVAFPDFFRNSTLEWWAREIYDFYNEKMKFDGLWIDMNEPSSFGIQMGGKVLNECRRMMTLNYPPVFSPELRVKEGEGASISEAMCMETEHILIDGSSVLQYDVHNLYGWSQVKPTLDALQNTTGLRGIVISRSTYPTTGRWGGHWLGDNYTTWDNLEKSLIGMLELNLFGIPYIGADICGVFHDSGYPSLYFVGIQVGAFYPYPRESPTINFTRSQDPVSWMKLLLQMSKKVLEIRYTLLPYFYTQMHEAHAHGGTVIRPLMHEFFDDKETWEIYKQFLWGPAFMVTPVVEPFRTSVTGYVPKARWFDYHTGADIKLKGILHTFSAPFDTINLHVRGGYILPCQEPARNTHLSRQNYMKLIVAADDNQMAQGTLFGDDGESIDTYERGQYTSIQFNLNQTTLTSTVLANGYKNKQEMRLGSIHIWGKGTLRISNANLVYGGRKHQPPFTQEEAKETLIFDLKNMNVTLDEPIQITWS

Row | SMILES | IC50 [1] [µM] | IC50 [2] [µM]
1 | NC(=O)c1cc(-c2ncccn2)ccc1NCCCCCCN1C[C@H](O)[C@@H](O)[C@H](O)[C@H]1CO [Compound 1266, 5-(pyrimidin-2-yl)-2-({6-[(2R,3R,4R,5S)-3,4,5-trihydroxy-2-(hydroxymethyl)piperidin-1-yl]hexyl}amino)benzamide] | 0.14 | 0.18
2 | [N-]=[N+]=Nc1ccc(NCCOC(=O)NCCN2C[C@H](O)[C@@H](O)[C@H](O)[C@H]2CO)c([N+](=O)[O-])c1 [Compound 1268, 2-[(4-azido-2-nitrophenyl)amino]ethyl N-{2-[(2R,3R,4R,5S)-3,4,5-trihydroxy-2-(hydroxymethyl)piperidin-1-yl]ethyl}carbamate] | 0.363 | 1.99
3 | [N-]=[N+]=Nc1ccc(NCCC(O)C(O)CCN2C[C@H](O)[C@@H](O)[C@H](O)[C@H]2CO)c([N+](=O)[O-])c1 (stereo partly drawn) [Compound 1270, (2R,3R,4R,5S)-1-{6-[(4-azido-2-nitrophenyl)amino]-3,4-dihydroxy-hexyl}-2-(hydroxymethyl)piperidine-3,4,5-triol] | 0.35 | 0.358
4 | [N-]=[N+]=Nc1ccc(NCCN2CC(OCCN3C[C@H](O)[C@@H](O)[C@H](O)[C@H]3CO)C2)c([N+](=O)[O-])c1 [Compound 1271, (2R,3R,4R,5S)-1-{2-[(1-{2-[(4-azido-2-nitrophenyl)amino]ethyl}azetidin-3-yl)oxy]ethyl}-2-(hydroxymethyl)piperidine-3,4,5-triol] | 0.266 | 1.07
5 | [N-]=[N+]=Nc1ccc(NCCn2cc(CCN3C[C@H](O)[C@@H](O)[C@H](O)[C@H]3CO)nn2)c([N+](=O)[O-])c1 [Compound 1272, (2R,3R,4R,5S)-1-[2-(1-{2-[(4-azido-2-nitrophenyl)amino]ethyl}-1H-1,2,3-triazol-4-yl)ethyl]-2-(hydroxymethyl)piperidine-3,4,5-triol] | 1.88 | 1.8
6 | [N-]=[N+]=Nc1ccc(NCCN2CCN(CCN3C[C@H](O)[C@@H](O)[C@H](O)[C@H]3CO)CC2)c([N+](=O)[O-])c1 [Compound 1273, (2R,3R,4R,5S)-1-[2-(4-{2-[(4-azido-2-nitrophenyl)amino]ethyl}piperazin-1-yl)ethyl]-2-(hydroxymethyl)piperidine-3,4,5-triol] | 21.6 | 13
7 | [N-]=[N+]=Nc1ccc(NCCS(=O)(=O)CCCN2C[C@H](O)[C@@H](O)[C@H](O)[C@H]2CO)c([N+](=O)[O-])c1 [Compound 1274, (2R,3R,4R,5S)-1-(3-{2-[(4-azido-2-nitrophenyl)amino]ethane-sulfonyl}propyl)-2-(hydroxymethyl)piperidine-3,4,5-triol] | 0.738 | 1.55
8 | [N-]=[N+]=Nc1ccc(NCCNS(=O)(=O)NCCN2C[C@H](O)[C@@H](O)[C@H](O)[C@H]2CO)c([N+](=O)[O-])c1 [Compound 1275, (2R,3R,4R,5S)-1-{2-[({2-[(4-azido-2-nitrophenyl)amino]ethyl}sulfamoyl)amino]ethyl}-2-(hydroxymethyl)piperidine-3,4,5-triol] | 0.413 | 4.06
9 | [N-]=[N+]=Nc1ccc(NCCNC(=O)NCCN2C[C@H](O)[C@@H](O)[C@H](O)[C@H]2CO)c([N+](=O)[O-])c1 [Compound 1276, 1-{2-[(4-azido-2-nitrophenyl)amino]ethyl}-3-{2-[(2R,3R,4R,5S)-3,4,5-trihydroxy-2-(hydroxymethyl)piperidin-1-yl]ethyl}urea] | 0.316 | 2.44
10 | Nc1ccc(NCCCCCCCCN2C[C@H](O)[C@@H](O)[C@H](O)[C@H]2CO)c([N+](=O)[O-])c1Cl [Compound 1277, (2R,3R,4R,5S)-1-{8-[(4-amino-3-chloro-2-nitrophenyl)amino]octyl} 2-(hydroxymethyl)piperidine-3,4,5-triol] | 0.133 | 0.166
11 | CC#Cc1ccc(NCCCCCCN2C[C@H](O)[C@@H](O)[C@H](O)[C@H]2CO)c([N+](=O)[O-])c1 [Compound 1290, (2R,3R,4R,5S)-2-(hydroxymethyl)-1-(6-{[2-nitro-4-(prop-1-yn-1-yl)phenyl]amino}hexyl)piperidine-3,4,5-triol] | < 0.01 | 0.036
12 | [N-]=[N+]=Nc1ccc(NCCCCCCN2C[C@H](O)[C@@H](O)[C@H](O)[C@H]2CO)c(C(N)=O)c1 [Compound 1296, 5-azido-2-({6-[(2R,3R,4R,5S)-3,4,5-trihydroxy-2-(hydroxymethyl)piperidin-1-yl]hexyl}amino)benzamide] | 0.494 | 0.142
13 | [N-]=[N+]=Nc1ccc(NCCCCCCN2C[C@H](O)[C@@H](O)[C@H](O)[C@H]2CO)c(C(=O)O)c1 [Compound 1297, 5-azido-2-({6-[(2R,3R,4R,5S)-3,4,5-trihydroxy-2-(hydroxymethyl)piperidin-1-yl]hexyl}amino)benzoic acid] | 0.8 | 1.3
14 | N#CCc1ccc(NCCCCCCN2C[C@H](O)[C@@H](O)[C@H](O)[C@H]2CO)c([N+](=O)[O-])c1 [Compound 1299, 2-[3-nitro-4-({6-[(2R,3R,4R,5S)-3,4,5-trihydroxy-2-(hydroxymethyl)piperidin-1-yl]hexyl}amino)phenyl]acetonitrile] | 0.037 | 0.189
15 | N#Cc1ccc(NCCCCCCN2C[C@H](O)[C@@H](O)[C@H](O)[C@H]2CO)c([N+](=O)[O-])c1 [Compound 1304, 3-nitro-4-({6-[(2R,3R,4R,5S)-3,4,5-trihydroxy-2-(hydroxymethyl)piperidin-1-yl]hexyl}amino)benzonitrile] | 0.06 | 0.178
16 | COc1ccc(-c2ccc(CCCN3C[C@H](O)[C@@H](O)[C@H](O)[C@H]3CO)cc2)cc1 [Compound 1305, (2R,3R,4R,5S)-2-(hydroxymethyl)-1-(3-{4′-methoxy-[1,1′-biphenyl]-4-yl}propyl)piperidine-3,4,5-triol] | 1.01 | 2.83
17 | COc1ccc(-c2ccc(CN3C[C@H](O)[C@@H](O)[C@H](O)[C@H]3CO)cc2)cc1 [Compound 1306, (2R,3R,4R,5S)-2-(hydroxymethyl)-1-({4′-methoxy-[1,1′-biphenyl]-4-yl}methyl)piperidine-3,4,5-triol] | < 0.01 | 0.745
18 | COCCc1ccc(CCCN2C[C@H](O)[C@@H](O)[C@H](O)[C@H]2CO)cc1 [Compound 1308, (2R,3R,4R,5S)-2-(hydroxymethyl)-1-{3-[4-(2-methoxyethyl)phenyl]propyl}piperidine-3,4,5-triol] | 0.331 | > 100
19 | COc1ccc(CCCCCCCN2C[C@H](O)[C@@H](O)[C@H](O)[C@H]2CO)cc1 [Compound 1309, (2R,3R,4R,5S)-2-(hydroxymethyl)-1-[7-(4-methoxyphenyl)heptyl]piperidine-3,4,5-triol] | 0.155 | 0.7
20 | COc1ccc(CCCCCN2C[C@H](O)[C@@H](O)[C@H](O)[C@H]2CO)cc1 [Compound 1310, (2R,3R,4R,5S)-2-(hydroxymethyl)-1-[5-(4-methoxyphenyl)pentyl]piperidine-3,4,5-triol] | 0.371 | 0.678
21 | OC[C@@H]1[C@@H](O)[C@H](O)[C@@H](O)CN1CCCCCCCCC1CNCCO1 (stereo partly drawn) [Compound 1311, (2R,3R,4R,5S)-2-(hydroxymethyl)-1-[8-(morpholin-2-yl)octyl]piperidine-3,4,5-triol] | 1.01 | 1.76
22 | Cc1cc(NCc2ccc(CN3C[C@H](O)[C@@H](O)[C@H](O)[C@H]3CO)cc2)cc(-c2ncco2)c1 [Compound 1315, (2R,3R,4R,5S)-2-(hydroxymethyl)-1-{[4-({[3-methyl-5-(1,3-oxazol-2-yl)phenyl]amino}methyl)phenyl]methyl}piperidine-3,4,5-triol] | 0.044 | 0.04
23 | Cc1cc(NCc2ccc(CN3C[C@H](O)[C@@H](O)[C@H](O)[C@H]3CO)cc2)cc(-n2nccn2)c1 [Compound 1316, (2R,3R,4R,5S)-2-(hydroxymethyl)-1-{[4-({[3-methyl-5-(2H-1,2,3-triazol-2-yl)phenyl]amino}methyl)phenyl]methyl}piperidine-3,4,5-triol] | 0.014 | 0.016
24 | Cc1cc(NCc2ccc(CN3C[C@H](O)[C@@H](O)[C@H](O)[C@H]3CO)cc2)cc(-c2ccco2)c1 [Compound 1317, (2R,3R,4R,5S)-1-{[4-({[3-(furan-2-yl)-5-methylphenyl]amino}methyl)phenyl]methyl}-2-(hydroxymethyl)piperidine-3,4,5-triol] | < 0.001 | < 0.001
